According to publication PMC12196235, “Enhancing the Pharmacological Properties of Triterpenes Through Acetylation: An Anticancer and Antioxidant Perspective” (Molecules, 2025):
“And” between values parts separate entries of the source, which are not always exact repeats. Equal entries are not always repeated. Where two headings read alike, the source gives them in different places.

How the values were obtained:
[1] = test system: HT-29 (human colorectal adenocarcinoma); settings: ref 105; read-out: IC50 (HT-29); cited from earlier work
[2] = test system: MCF-7 (human breast carcinoma); experiment: MTT assay, MCF-7; assay type: cell-based; settings: for IC50: MTT assay, MCF-7, read-out: IC50 (±SD), MCF-7; for Selectivity index (SI), MCF-7: IC50 HDF / IC50 MCF-7
Description: (§1) All the cell lines and mediums were obtained from the American Type Culture Collection (ATCC) supplied by LGC-Standards (Lomianki, Poland). Human cancer cell lines were cultured as follows: HeLa (human cervix carcinoma) and KB (human oral squamous carcinoma) lines were cultured in DMEM (Dulbecco’s Modified Eagle’s Medium); MCF-7 (human breast carcinoma) and A-549 (human lung carcinoma) were cultured in RPMI 1640 medium; PC-3 (human prostate carcinoma) was cultured in F-12K medium; SKOV-3 (human ovarian cystadenocarcinoma) was cultured in McCoy’s modified medium; HDF (human normal dermal fibroblasts) was cultured in Fibroblast Basal Medium. Each medium was supplemented with 10% fetal bovine serum, 1% L- glutamine and 1% penicillin/streptomycin solution. The cell lines were kept in an incubator at 37 °C.
(§2) All the tested cell lines (HeLa, KB, MCF-7, A-549, PC-3, SKOV-3 and HDF) were subjected to MTT assay. In short, this assay is based on the reaction between mitochondria enzymes (dehydrogenases) of tested cell lines and 3-(4,5-dimethylthiazol-2-yl)-2,5-diphenyltetrazolium bromide (MTT). The final product of this reaction gives violet formazan crystals. The number of live cells is proportional to the amount of formazan and is represented by the violet dye reagent. The details of the experiments are given in [19].

[3] = test system: HeLa, KB, MCF-7, A-549, PC-3 and SKOV-3; experiment: MTT assay, summary over the cancer cell lines; assay type: cell-based, human; settings: for cytotoxic activity class: classification by IC50 (good ≤ 10 μM, moderate 10–30 μM, ref 83)
Description: as §1, §2

[4] = test system: HDF (human dermal fibroblasts); experiment: MTT assay, normal HDF; assay type: cell-based; settings: read-out: IC50 (±SD), HDF
Description: as §1, §2

[5] = test system: SKOV-3; experiment: Apoptosis assay (Cell Death Detection ELISA Plus), SKOV-3; assay type: cell-based, human; settings: SKOV-3, 4 h incubation, enrichment of mono- and oligonucleosomes vs negative control
Description: (§3) The induction of apoptosis by tested compounds was determined with Cell Death Detection ELISA Plus from Roche Diagnostics GmbH (Mannheim, Germany).
(§4) Cell Death Detection ELISA Plus is an enzyme immunoassay for determining cytoplasmic histone-associated DNA fragments (mono- and […]) after induced cell death. Cells (10^4) were pipetted into wells of 96-well plates, and test compounds were added at final concentrations of 0.1, 1.0 and 10.0 µg × mL^−1. Cells incubated in the absence of test compounds served as negative controls. After 4 h of incubation, cells were harvested by centrifugation of the plates for 10 min at 200× g. Supernatants were removed carefully, and cell pellets were resuspended in 200 µL of cell lysis buffer and incubated for 30 min at room temperature. After centrifugation of the plates (10 min at 200× g), 20 µL of cell lysates was transferred in duplicate into wells of provided streptavidin-coated microplates. Then, 80 µL of the immunoreagent containing a mixture of anti-histone-biotin monoclonal antibody and anti-DNA-peroxidase monoclonal antibody was added to each well. The microplates were covered with a provided adhesive foil and incubated for 2 h at room temperature. Thereafter, the solution in the wells was removed by tapping the microplate. The wells were rinsed three times with incubation buffer, and 100 µL of substrate (2,2′-azino-bis [3-ethylbenzothiazoline-6-sulphonic acid], ABTS) was added to each well. After 10–20 min, 100 µL of ABTS stop solution was pipetted to each well, and the absorbance was read at 405 nm (test wavelength) and 490 nm (reference wavelength). The apoptotic index was calculated based on the enrichment of mono- and oligonucleosomes according to the following equation:apoptotic index = [{A405(sample) − A490(sample)}/{A405(negative control) − A490(negative control)}]

[6] = test system: RAW 264.7; settings: ref 106; cited from earlier work
[7] = CUPRAC antioxidant assay; settings: calculated from Trolox standard curve
Description: (§5) The results are presented as % inhibition of the copper(II) ions and Trolox equivalent calculated from the standard curve (Figure 9) and as % inhibition of the DPPH radical and Trolox equivalent, calculated from the standard curve (Figure 10).
(§6) The CUPRAC reagent (7.5 mM ethanolic 96% neocuproine solution, 10 mM CuCl2 × H2O solution and an ammonium acetate buffer of pH 7.0) and DPPH reagent (2,2-diphenyl-1-picrylhydrazyl 0.2 mM solution) were applied.
(§7) The CUPRAC method measures the reducing power of a sample by quantifying its ability to convert the Cu-neocuproine reagent complex to the Cu(I) form. In contrast, the DPPH assay relies on the ability of an antioxidant to donate a hydrogen atom or an electron to the stable DPPH radical, resulting in its reduction and subsequent color change. The results are presented as % inhibition of the copper(II) ions and Trolox equivalent calculated from the standard curve (Figure 9) and as % inhibition of the DPPH radical and Trolox equivalent, calculated from the standard curve (Figure 10). The spectroscopic detection in CUPRAC and DPPH assays was conducted with Synergy H1 Multi-Mode Microplate Reader (BioTek Instruments, Inc., Winooski, VT, USA). The details of the experiments are given in [102].

[8] = test system: A-549 (human lung carcinoma); experiment: MTT assay, A-549; assay type: cell-based; settings: for IC50: MTT assay, A-549, read-out: IC50 (±SD), A-549; for Selectivity index (SI), A-549: IC50 HDF / IC50 A-549
Description: as §1, §2

[9] = test system: HeLa (human cervical epithelioid carcinoma); experiment: MTT assay, HeLa; assay type: cell-based; settings: for IC50: MTT assay, HeLa, read-out: IC50 (±SD), HeLa; for Selectivity index (SI), HeLa: IC50 HDF / IC50 HeLa
Description: as §1, §2

[10] = test system: PC-3 (human prostate carcinoma); experiment: MTT assay, PC-3; assay type: cell-based; settings: for IC50: MTT assay, PC-3, read-out: IC50 (±SD), PC-3; for Selectivity index (SI), PC-3: IC50 HDF / IC50 PC-3
Description: as §1, §2

[11] = test system: KB-VIN (multidrug resistant human epidermoid carcinoma); settings: ref 104; cited from earlier work
[12] = test system: B16-F10 (murine melanoma); settings: cited from earlier work
[13] = test system: SKOV-3 (human ovarian carcinoma); experiment: MTT assay, SKOV-3; assay type: cell-based; settings: for IC50: MTT assay, SKOV-3, read-out: IC50 (±SD), SKOV-3; for Selectivity index (SI), SKOV-3: IC50 HDF / IC50 SKOV-3
Description: as §1, §2

[14] = test system: J774A.1 (macrophage-like cell line); settings: ref 106; cited from earlier work
[15] = test system: KB (human oral squamous carcinoma); settings: ref 104; cited from earlier work
[16] = test system: PC-3; experiment: Apoptosis assay (Cell Death Detection ELISA Plus), PC-3; assay type: cell-based, human; settings: PC-3, 4 h incubation, enrichment of mono- and oligonucleosomes vs negative control
Description: as §3, §4

[17] = test system: A-549 (human lung carcinoma); settings: ref 104; read-out: IC50 (A-549); cited from earlier work
[18] = DPPH antioxidant assay; settings: calculated from Trolox standard curve
Description: as §5, §6, §7

[19] = test system: KB (human oral squamous carcinoma); experiment: MTT assay, KB; assay type: cell-based; settings: for IC50: MTT assay, KB; for Selectivity index (SI), KB: IC50 HDF / IC50 KB
Description: as §1, §2

[20] = test system: Hep-G2 (human hepatocellular carcinoma); settings: ref 105; read-out: IC50 (Hep-G2); cited from earlier work

IC50 [2] [µM] | SMILES | IC50 ([2]; Homo sapiens, MCF7) [µM] | Selectivity index (SI), MCF-7 [2] | cytotoxic activity class [3] | IC50 ([4]; Homo sapiens, Fibroblast) [µM] | Apoptotic index (AI), SKOV-3 [5] | Trolox Equivalent, CUPRAC Assay [7] | IC50 ([8]; Homo sapiens, A549) [µM] | Selectivity index (SI), A-549 [8] | IC50 ([9]; Homo sapiens) [µM] | Selectivity index (SI), HeLa [9] | IC50 ([10]; Homo sapiens) [µM] | Selectivity index (SI), PC-3 [10] | IC50 ([13]; Homo sapiens, SK-OV-3) [µM] | Selectivity index (SI), SKOV-3 [13] | Apoptotic index (AI), PC-3 [16] | Trolox Equivalent, DPPH Assay [18] | IC50 ([19]; Homo sapiens) [µM] | Selectivity index (SI), KB [19] | IC50 [4] [µM] | further results
 | CC(=O)O[C@H]1CC[C@]2(C)[C@H]3CC=C4[C@@H]5CC(C)(C)CC[C@]5(C(=O)O)CC[C@@]4(C)[C@]3(C)CC[C@H]2C1(C)C [1b, 3-O-Acetyloleanolic acid] | 1.86 | 0.10 | very high cytotoxic activity | 0.19 | 6.79 (0.16) | 0.2199 mg/mL and 0.2199 ± 0.00657 mg/mL | 0.24 | 0.79 | 0.24 | 0.79 | 0.11 | 1.73 | 0.09 | 2.11 | 6.90 (0.04) | 0.0143 ± 0.000592 mg/mL | 0.36 | 0.53 |  | IC50 [1]: 148 µM; IC50 [6]: 13.8 µM; IC50 [11]: 7.6 µM; IC50 ([12]; ref 105): 64.7 µM; IC50 ([12]; ref 107): 64.7 µM; IC50 [14]: 16.8 µM; IC50 [15]: 7.6 µM; IC50 [17]: 5.8 µM; IC50 [20]: 104 µM
 | CC(=O)OCC12CCC(C)(C)CC1C1=CCC3C4(C)CCC(OC(C)=O)C(C)(C)C4CCC3(C)C1(C)CC2 (stereo not shown) [2b, 3,28-di-O-Acetylerythrodiol] | 61.6 | 0.86 |  | 53.1 |  | 0.2402 mg/mL and 0.2402 ± 0.00995 mg/mL | 51.6 | 1.03 | 70.3 | 0.75 | 25.1 | 2.11 | 25.5 | 2.08 |  | 0.00313 ± 0.00013 mg/mL | 50 | 1.06 |  | 
 | CC1(C)CC[C@]23CC[C@]4(C)[C@H](CC[C@@H]5[C@@]6(C)CC[C@H](O)C(C)(C)[C@@H]6CC[C@]54C)[C@H]2[C@H]1OC3 [3a, allobetulin] | 71.1 | 0.68 |  | 48.2 | 5.78 (0.01) | 0.08248 mg/mL and 0.08248 ± 0.005 mg/mL | 51.7 | 0.93 | 49.4 | 0.97 | 20.2 | 2.39 | 20.9 | 2.30 | 5.27 (0.01) | 0.01677 ± 0.000694 mg/mL | 45.3 | 1.06 |  | IC50 ([3]; Homo sapiens, MTT assay, range over tested cancer cell lines): 20 to 70 µM
> 100 | CC(=O)OC1CCC2(C)C(CCC3(C)C2CCC2C4C5OCC4(CCC5(C)C)CCC23C)C1(C)C (stereo not shown) [3b, 3-O-Acetylallobetulin] |  |  |  |  |  | 0.03212 mg/mL and 0.03212 ± 0.00166 mg/mL |  |  |  |  |  |  |  |  |  | 0.00182 mg/mL and 0.00182 ± 0.000755 mg/mL |  |  | 62 | IC50 [8]: > 100 µM; IC50 [9]: > 100 µM; IC50 [10]: 52.2 µM; IC50 [13]: 53.1 µM; IC50 [19]: > 100 µM
 | C=C(C)C1CCC2(C(=O)O)CCC3(C)C(CCC4C5(C)CCC(OC(C)=O)C(C)(C)C5CCC43C)C12 (stereo not shown) [4b, 3-O-Acetylbetulinic acid] | 1.5 | 1.92 | very high cytotoxic activity | 2.88 | 7.81 (0.02) | 0.1999 mg/mL and 0.1999 ± 0.0015 mg/mL | 1.23 | 2.34 | 1.62 | 1.77 | 0.93 |  | 1.03 |  | 7.09 (0.01) | 0.00376 ± 0.000156 mg/mL | 1.5 | 1.92 |  | 
50 | C=C(C)[C@@H]1CC[C@]2(C)CC[C@]3(C)[C@H](CC[C@@H]4[C@@]5(C)CC[C@H](OC(C)=O)C(C)(C)[C@@H]5CC[C@]43C)[C@@H]12 [6b, 3-O-Acetylolupeol] |  |  |  |  |  | 0.1349 ± 0.00514 mg/mL |  |  |  |  |  |  |  |  |  | 0.00348 ± 0.000144 mg/mL |  |  | 35 | IC50 [8]: 56.2 µM; IC50 [9]: 72.6 µM; IC50 [10]: 22.2 µM; IC50 [13]: 21.1 µM; IC50 [19]: 72.5 µM
